# Experiments:
# [1] = test system: H2122 cell line; test: Combination cell growth inhibition (Sytox Green, Loewe synergy), H2122; type: cell-based, human; conditions: Example 18 with selumetinib, 6x6 dosing matrix 0-10 μmol/L, 3 days, Loewe model, average of three or more experiments
# From the text: (§1) A549 is a human non small cell lung cancer line carrying an oncogenic mutation in the KRAS gene (G12S). H2122 is a human non small cell lung cancer line carrying an oncogenic mutation in the KRAS gene (G12C). H2009 is a human non small cell lung cancer line carrying an oncogenic mutation in the KRAS gene (G12A). Calu6 is a human non small cell lung cancer line carrying mutation in the KRAS ([…]) gene. All cell lines were obtained from the American Type Culture Collection.
# (§2) All cell line were maintained at 37° C. and 5% CO2 in a humidified atmosphere and grown in RPMI-1640 growth media supplemented with 10% FBS and 2 mmol/L glutamine. […]
# (§3) Cells were seeded in 384-well black, clear bottomed plates (Greiner Bio-One, Stonehouse, UK), cultured for 18-24 hours and treated with increasing concentrations of Example 18 and selumetinib (0-10 μmol/L) in a 6×6 dosing matrix. […] After 3 days of treatment, live cell number was determined using a Sytox Green endpoint as described previously (“Davies B R, Greenwood H, Dudley P, et al: Preclinical pharmacology of AZD5363, an inhibitor of AKT: Pharmacodynamics, antitumor activity, and correlation of monotherapy activity with genetic background. Mol Cancer Ther 11(4):873-87, 2012”). […] Cells were then permeabilised by the overnight addition of saponin (0.03% final concentration, diluted in TBS-EDTA buffer) and a total cell count measured. […]
# [2] = target: T1, ERK2 (Homo sapiens, UniProt P28482); test: ERK2 Rapidfire Mass Spectrometry Inhibition of Catalysis Assay; type: biochemical; conditions: 1.2 nM ERK2, 16 μM Erktide, 120 μM ATP (measured Km), 15 minute pre-incubation; read-out: ERK2 Mass Spectrometry Enzyme IC50
# T1 construct: made in house
# How it was run: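 In-house MEK-activated ERK2 (1.2 nM) in 50 mM Tris pH 7.5, 10 mM MgCl2, 0.1 mM EGTA, 10 mM DTT, 0.01% CHAPS; 12-point dose range 10–0.0000125 μM, 1% DMSO. Reaction 20 min at room temperature, formic acid quench; Erktide and phospho-Erktide measured by RapidFire mass spectrometry to give IC50.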
# [3] = test system: panel of cancer cell lines with KRAS mutations; test: Cell growth inhibition, monotherapy, panel of KRAS mutant lines; type: cell-based, human; conditions: A549, H2122, H2009, Calu6; 3 days of treatment
# From the text: as §1, §2, §3
# T1 sequence (P28482 whole entry): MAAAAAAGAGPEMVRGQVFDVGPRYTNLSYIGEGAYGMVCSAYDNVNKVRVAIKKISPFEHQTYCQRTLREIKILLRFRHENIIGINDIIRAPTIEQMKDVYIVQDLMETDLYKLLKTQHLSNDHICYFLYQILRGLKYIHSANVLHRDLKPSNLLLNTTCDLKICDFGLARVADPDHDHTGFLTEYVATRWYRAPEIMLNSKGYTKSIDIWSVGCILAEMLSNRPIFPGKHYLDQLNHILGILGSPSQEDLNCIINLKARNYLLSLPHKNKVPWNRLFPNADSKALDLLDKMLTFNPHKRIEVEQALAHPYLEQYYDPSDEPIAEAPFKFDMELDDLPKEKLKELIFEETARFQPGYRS
compound,measurement,setting,value
"COC[C@H]1Cn2cc(-c3nc(Nc4ccnn4C)ncc3C)nc2C(=O)N1Cc1ccc(F)c(F)c1 [Example 18, (R)-7-(3,4-Difluorobenzyl)-6-(methoxymethyl)-2-(5-methyl-2-((1-methyl-1H-pyrazol-5-yl)amino)pyrimidin-4-yl)-6,7-dihydroimidazo[1,2-a]pyrazin-8(5H)-one]",Synergy score,[1],14.3
same,IC50,[2],0.6 nM
same,cell growth inhibition as monotherapy,[3],can inhibit the growth of a panel of cancer cell lines with KRAS mutations as a monotherapy

# From patent US10202391B2, “Chemical compounds” (AstraZeneca AB, priority 2015, dated 2019)
